ChEMBL document CHEMBL2163236, “7-Oxo-[1,4]oxazino[2,3,4-ij]quinoline-6-carboxamides as selective CB(2) cannabinoid receptor ligands: structural investigations around a novel class of full agonists” (J Med Chem, 2012)
pIC50, pKi: −log10 of the molar value.

How the values were obtained:
Cannabinoid receptor 2 [1] = target: T1, Cannabinoid receptor 2 (Homo sapiens, UniProt P34972); assay: Agonist activity at human recombinant CB2 receptor expressed in CHO cell membranes assessed as inhibition of forskolin-induced cAMP accumulation; type: functional, cell-based
Cannabinoid receptor 1 [2] = target: Cannabinoid receptor 1 (Rattus norvegicus, UniProt P20272); assay: Displacement of [3H]CP-55940 from CB1 receptor in Sprague-Dawley rat brain by scintillation counting
Cannabinoid receptor 2 [3] = target: T1, Cannabinoid receptor 2; assay: Displacement of [3H]CP-55940 from human recombinant CB2 receptor expressed in CHO cell membranes incubated for 60 mins by scintillation counting
Homo sapiens = organism: Homo sapiens; assay: Selectivity ratio of Ki for human recombinant CB1 receptor to KI for human recombinant CB2 receptor
Cannabinoid receptor 2 [4] = target: T2, Cannabinoid receptor 2 (Rattus norvegicus, UniProt Q9QZN9); assay: Displacement of [3H]CP-55940 from CB2 receptor in Sprague-Dawley rat spleen by scintillation counting
T2 sequence (Q9QZN9 whole entry): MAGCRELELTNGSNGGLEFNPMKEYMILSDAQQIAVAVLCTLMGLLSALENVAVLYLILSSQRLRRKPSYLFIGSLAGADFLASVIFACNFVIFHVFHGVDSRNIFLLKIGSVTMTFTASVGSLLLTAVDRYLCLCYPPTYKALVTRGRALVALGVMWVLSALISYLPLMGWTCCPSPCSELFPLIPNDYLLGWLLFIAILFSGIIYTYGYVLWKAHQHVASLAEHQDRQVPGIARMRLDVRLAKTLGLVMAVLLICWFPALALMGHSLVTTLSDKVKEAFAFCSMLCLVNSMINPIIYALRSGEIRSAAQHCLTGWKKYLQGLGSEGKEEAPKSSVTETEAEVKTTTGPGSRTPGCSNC

Cannabinoid receptor 1 [5] = target: Cannabinoid receptor 1 (Homo sapiens, UniProt P21554); assay: Displacement of [3H]CP-55940 from human recombinant CB1 receptor expressed in CHO cell membranes incubated for 90 mins by scintillation counting
Chain of Cannabinoid receptor 1 (Homo sapiens, UniProt P21554) (P21554 whole entry): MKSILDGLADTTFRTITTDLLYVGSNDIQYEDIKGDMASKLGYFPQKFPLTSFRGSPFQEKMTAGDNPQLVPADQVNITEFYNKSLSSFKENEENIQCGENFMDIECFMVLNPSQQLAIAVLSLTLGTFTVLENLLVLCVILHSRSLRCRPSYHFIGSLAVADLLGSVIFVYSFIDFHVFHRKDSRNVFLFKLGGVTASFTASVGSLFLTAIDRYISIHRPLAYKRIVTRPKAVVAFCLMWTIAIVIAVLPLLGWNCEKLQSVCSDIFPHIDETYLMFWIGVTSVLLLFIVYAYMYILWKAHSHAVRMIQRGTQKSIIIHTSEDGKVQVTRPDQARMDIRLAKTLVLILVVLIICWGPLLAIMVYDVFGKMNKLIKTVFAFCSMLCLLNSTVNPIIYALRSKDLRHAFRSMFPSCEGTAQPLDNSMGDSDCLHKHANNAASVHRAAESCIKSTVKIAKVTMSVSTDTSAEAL

T1 sequence (P34972 whole entry): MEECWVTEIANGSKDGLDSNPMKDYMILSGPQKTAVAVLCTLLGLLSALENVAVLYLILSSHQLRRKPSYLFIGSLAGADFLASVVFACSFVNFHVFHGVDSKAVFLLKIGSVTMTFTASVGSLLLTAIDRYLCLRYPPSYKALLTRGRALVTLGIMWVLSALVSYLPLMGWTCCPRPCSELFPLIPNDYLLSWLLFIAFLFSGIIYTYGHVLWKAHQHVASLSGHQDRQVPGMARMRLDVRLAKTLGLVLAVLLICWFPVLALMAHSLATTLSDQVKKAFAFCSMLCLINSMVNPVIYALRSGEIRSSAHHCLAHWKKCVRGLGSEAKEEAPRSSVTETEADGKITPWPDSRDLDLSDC
Chain of Cannabinoid receptor 1 (Rattus norvegicus, UniProt P20272) (P20272 whole entry): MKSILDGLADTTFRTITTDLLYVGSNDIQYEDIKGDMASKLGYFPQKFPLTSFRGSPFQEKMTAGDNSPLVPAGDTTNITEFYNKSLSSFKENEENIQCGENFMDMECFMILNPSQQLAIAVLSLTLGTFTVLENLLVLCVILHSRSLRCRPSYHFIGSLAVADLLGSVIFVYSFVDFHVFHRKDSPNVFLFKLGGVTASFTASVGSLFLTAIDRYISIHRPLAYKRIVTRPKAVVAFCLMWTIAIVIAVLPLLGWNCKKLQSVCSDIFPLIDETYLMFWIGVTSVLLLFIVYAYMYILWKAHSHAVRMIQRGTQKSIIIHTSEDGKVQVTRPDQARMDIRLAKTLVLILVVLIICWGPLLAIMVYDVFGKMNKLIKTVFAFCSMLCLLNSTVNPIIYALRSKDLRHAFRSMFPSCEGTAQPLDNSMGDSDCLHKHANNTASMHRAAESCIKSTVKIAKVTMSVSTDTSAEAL

| SMILES | pIC50 (Cannabinoid receptor 2 [1]) | pKi (Cannabinoid receptor 1 [2]) | pKi (Cannabinoid receptor 2 [3]) | Ratio Ki (Homo sapiens) | pKi (Cannabinoid receptor 2 [4]) | pKi (Cannabinoid receptor 1 [5]) |
| --- | --- | --- | --- | --- | --- | --- |
| C[C@@H]1COc2cccc3c(=O)c(C(=O)NC4CCCCC4)cn1c23 | 7.05 | 5.45 | 7.62 | 119 | 7.52 | 5.54 |
| C[C@H]1COc2cccc3c(=O)c(C(=O)NC4CCCCC4)cn1c23 | 6.14 | 5.28 | 6.73 | 25 | 6.60 | 5.33 |
| C[C@@H]1COc2cccc3c(=O)c(C(=O)NC45CC6CC(CC(C6)C4)C5)cn1c23 | 6.82 | < 5.00 | 7.33 | > 212 | 7.28 | < 5.00 |
| C[C@H]1COc2cccc3c(=O)c(C(=O)NC45CC6CC(CC(C6)C4)C5)cn1c23 | 6.60 | < 5.00 | 7.11 | > 128 | 7.07 | < 5.00 |
| CC[C@@H]1COc2cccc3c(=O)c(C(=O)NC4CCCCCC4)cn1c23 | 7.76 | 6.90 | 8.39 | 25 | 8.22 | 6.98 |
| CC[C@H]1COc2cccc3c(=O)c(C(=O)NC4CCCCCC4)cn1c23 | 6.17 | 6.04 | 6.73 | 4.5 | 6.69 | 6.07 |
| CC[C@@H]1COc2cccc3c(=O)c(C(=O)NC45CC6CC(CC(C6)C4)C5)cn1c23 | 7.74 | 6.62 | 8.31 | 40 | 8.21 | 6.71 |
| CC[C@H]1COc2cccc3c(=O)c(C(=O)NC45CC6CC(CC(C6)C4)C5)cn1c23 | 6.38 | 6.19 | 7.06 | 7 | 7.01 | 6.24 |
| CC(C)[C@@H]1COc2cccc3c(=O)c(C(=O)NC45CC6CC(CC(C6)C4)C5)cn1c23 | 8.01 | 7.02 | 8.91 | 71 | 8.76 | 7.06 |
| CC(C)[C@H]1COc2cccc3c(=O)c(C(=O)NC45CC6CC(CC(C6)C4)C5)cn1c23 | 7.26 | 6.06 | 7.79 | 53 | 7.71 | 6.07 |
| CC(C)C[C@@H]1COc2cccc3c(=O)c(C(=O)NC45CC6CC(CC(C6)C4)C5)cn1c23 | 7.44 | < 5.00 | 8.03 | > 1080 | 7.99 | < 5.00 |
| O=C(NC12CC3CC(CC(C3)C1)C2)c1cn2c3c(cccc3c1=O)OC[C@H]2Cc1ccccc1 | 7.76 | 6.92 | 8.43 | 28 | 8.33 | 6.98 |
| CC1(C)COc2cccc3c(=O)c(C(=O)NC45CC6CC(CC(C6)C4)C5)cn1c23 | 6.62 | 6.56 | 7.25 | 4 | 7.17 | 6.66 |
| CCC1COc2cccc3c(=O)c(C(=O)NC45CC6CC(CC(C6)C4)C5)cn1c23 (racemic) | 7.42 | 6.14 | 8.11 | 88 | 7.87 | 6.16 |
| CCC1COc2c(N3CCCC3)ccc3c(=O)c(C(=O)NC45CC6CC(CC(C6)C4)C5)cn1c23 (racemic) | 7.54 | < 5.00 | 8.09 | > 1230 | 7.98 | < 5.00 |
| CCC1COc2c(N3CCN(C)CC3)ccc3c(=O)c(C(=O)NC45CC6CC(CC(C6)C4)C5)cn1c23 (racemic) | 6.71 | < 5.00 | 7.38 | > 238 | 7.21 | < 5.00 |
| CCC1COc2cccc3c(=O)c(C(=O)NC4C5CC6CC(C5)CC4C6)cn1c23 (racemic) | 7.24 | 6.37 | 7.88 | 30 | 7.79 | 6.41 |
| CCC1COc2cccc3c(=O)c(C(=O)NC(C)CCC(C)C)cn1c23 (racemic) | 7.21 | < 5.00 | 7.80 | > 633 | 6.71 | < 5.00 |
| CCC1COc2cccc3c(=O)c(C(=O)Nc4ccncc4)cn1c23 (racemic) | 6.17 | 5.86 | 6.82 | 8 | 6.74 | 5.94 |
